# Experimental data published in ChEMBL document CHEMBL5360521, “A chemical perspective on the modulation of TEAD transcriptional activities: Recent progress, challenges, and opportunities” (Eur J Med Chem, 2022).
# Assays:
# [1] = system: MSTO-211H; test: Antiproliferative activity against human MSTO-211H cells assessed as cell growth inhibition incubated for 144 hrs by CCK-8 assay; type: functional, cell-based
# [2] = Antiproliferative activity against human Mero-14 cells assessed as cell growth inhibition incubated for 144 hrs by CCK-8 assay; type: functional, cell-based; conditions: Mero-14, 144 h
# [3] = system: NCI-H226; test: Antiproliferative activity against human NCI-H226 cells assessed as cells growth inhibition incubated for 144 hrs by CCK-8 assay; type: functional, cell-based; conditions: NCI-H226, 144 h
# [4] = system: NCI-H226; test: Antitumor activity against human NCI-H226 cells xenografted BALB/c mouse assessed as tumor growth inhibition at 2 mg/kg, po qd for 28 days relative to control; type: functional; conditions: NCI-H226, 672 h, time 28 day, read-out: TGI
# [5] = system: NCI-H226; test: Antitumor activity against human NCI-H226 cells xenografted BALB/c mouse assessed as tumor growth inhibition at 10 mg/kg, po qd for 28 days relative to control; type: functional; conditions: NCI-H226, 672 h, time 28 day, read-out: TGI
# [6] = Inhibition of TEAD auto palmitoylation (unknown origin); parameters: species or system Homo sapiens
# [7] = biological target: Transcriptional enhancer factor TEF-1 (Homo sapiens, UniProt P28347); test: Inhibition of N-terminal 6xHis-tagged human TEAD1 auto palmitoylation (209 to 426 residues) expressed in Escherichia coli BL21 (DE3) cells by ABPP assay
# Sequence of Transcriptional enhancer factor TEF-1 (P28347 whole entry, the tested form may be a part): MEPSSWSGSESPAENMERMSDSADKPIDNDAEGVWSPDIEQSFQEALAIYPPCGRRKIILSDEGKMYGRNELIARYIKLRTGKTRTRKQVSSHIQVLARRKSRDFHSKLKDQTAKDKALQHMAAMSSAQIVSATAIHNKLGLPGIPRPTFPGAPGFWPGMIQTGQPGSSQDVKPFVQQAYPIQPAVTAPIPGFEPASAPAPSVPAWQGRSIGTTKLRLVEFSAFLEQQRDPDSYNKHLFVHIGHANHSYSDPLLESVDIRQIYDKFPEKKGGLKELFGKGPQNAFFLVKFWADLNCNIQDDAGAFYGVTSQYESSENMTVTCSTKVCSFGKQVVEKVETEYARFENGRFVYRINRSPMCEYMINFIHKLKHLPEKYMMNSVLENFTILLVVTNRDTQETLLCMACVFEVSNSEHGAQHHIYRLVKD
# [8] = biological target: Transcriptional enhancer factor TEF-5 (Homo sapiens, UniProt Q99594); test: Inhibition of N-terminal 6xHis-tagged human TEAD3 auto palmitoylation (209 to 426 residues) expressed in Escherichia coli BL21 (DE3) cells by ABPP assay
# Sequence of Transcriptional enhancer factor TEF-5 (Q99594 whole entry, the tested form may be a part): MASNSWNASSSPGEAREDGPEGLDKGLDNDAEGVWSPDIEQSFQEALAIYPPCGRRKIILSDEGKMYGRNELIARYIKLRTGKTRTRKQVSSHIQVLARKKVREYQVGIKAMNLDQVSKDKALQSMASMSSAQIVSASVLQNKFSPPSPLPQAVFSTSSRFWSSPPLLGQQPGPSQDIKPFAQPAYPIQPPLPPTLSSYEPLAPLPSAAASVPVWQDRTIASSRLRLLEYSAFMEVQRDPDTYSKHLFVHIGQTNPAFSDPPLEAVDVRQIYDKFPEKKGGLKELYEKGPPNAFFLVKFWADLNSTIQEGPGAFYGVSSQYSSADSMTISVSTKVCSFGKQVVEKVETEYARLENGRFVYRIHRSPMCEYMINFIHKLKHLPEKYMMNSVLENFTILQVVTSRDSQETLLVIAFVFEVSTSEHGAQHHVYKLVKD
# [9] = Inhibition of YAP/TEAD in HEK293 cells by Split Gaussia Luciferase Assay; type: cell-based, HEK293T; conditions: Homo sapiens, HEK-293T
smiles,measurement,setting,value
C=CC(=O)Nc1ccc(C)c(Oc2ccc(Cl)cc2)c1,IC50,[1],< 100 nM
same,IC50,[2],< 100 nM
same,IC50,[3],< 100 nM
C=C(F)C(=O)N1CC(n2nc(-c3ccc(C(F)(F)F)nc3)c3cccnc32)C1,inhibition in vivo at 2 mg/kg,[4],67%
C=C(F)C(=O)N1CC(n2nc(-c3ccc(C(F)(F)F)cc3)c3cccnc32)C1,inhibition in vivo at 10 mg/kg,[5],101%
CNS(=O)(=O)c1ccc(NCc2ccc(C(F)(F)F)cc2)c(-c2cn(C)cn2)c1,EC50,[6],25 nM
C=CC(=O)N1CCC(CCOc2ccccc2)CC1,IC50,[7],580 nM
same,IC50,[8],610 nM
C=CC(=O)N1CCC(C)(Nc2cccc(C(F)(F)F)c2)C1 (centres undefined),IC50,[9],800 nM
